According to patent US4389327A, “Use of selected 1,2-dihydro-1,2,4,5-tetrazines as oxygen-scavenging agents” (priority 1982, dated 1983):

Columns and labels:
[1] = Deoxygenation of air-saturated buffered distilled water (oxygen meter), time for removal of dissolved oxygen; conditions: pH 9.5, about 25° C.; for T1/2, time required for removal of half of the dissolved oxygen: 2.4×10^-4 moles dissolved O2; for T9/10, time for removal of 90% of the oxygen: measured if under 10 minutes
Procedure: Weighed amounts of this compound were placed in 100 ml volumetric flasks and diluted with deoxygenated, deionized water. Aliquots of this mixture were injected in the test cell as shown in Example 4.
Again, weighed amounts of this compound were placed in 100 ml volumetric flasks and diluted with deoxygenated, deionized water. Aliquots of this mixture were injected into the test cell as shown in Example 4.
These deoxygenation measurements were run in a one liter round bottom flask equipped with a small septum-covered side arm and a standard taper joint into which was inserted the probe of an oxygen meter (Model 54 made by Yellow Springs Instrument Co. of Yellow Springs, Ohio). For each test, the flask was filled with air-saturated, buffered (with Na2 CO3 /NaHCO3 to pH of 9.5) distilled water. The amount of dissolved O2 content in the water was 2.4×10^-4 moles.
After filling with water, the probe was inserted into the flask and a sample of the compound made in Examples 1, 2, or 3 was injected through the side arm.
The times required for removal of half of the dissolved oxygen were measured (T1/2). Also, the times for removal of 90% of the oxygen (T9/10) were also measured if under 10 minutes.

[2] = Water solubility (remark); assay type: physicochemical
[3] = amount of compound 2.4 × 10^-4 moles
[4] = amount of compound 7.2 × 10^-4 moles
[5] = amount of compound 12.0 × 10^-4 moles

Row | SMILES | T1/2, time required for removal of half of the dissolved oxygen [1, 3] | T1/2, time required for removal of half of the dissolved oxygen [1, 4] | T9/10, time for removal of 90% of the oxygen [1, 4] | T1/2, time required for removal of half of the dissolved oxygen [1, 5] | T9/10, time for removal of 90% of the oxygen [1, 5] | water solubility [2]
1 | CCC1=NN=C(CC)NN1 [3,6-diethyl-1,2-dihydro-1,2,4,5-tetrazine] | 7.5 min | 0.9 min | 1.5 min | 0.6 min | 0.9 min | –
2 | CC1=NN=C(C)NN1 [3,6-dimethyl-1,2-dihydro-1,2,4,5-tetrazine] | – | 1.5 min | 2.2 min | 0.12 min | 0.30 min | –
3 | c1ccc(C2=NNC(c3ccccc3)=NN2)cc1 [3,6-diphenyl-1,2-dihydro-1,2,4,5-tetrazine] | 6 min | – | – | – | – | limited water solubility
4 | NN [hydrazine, reference compound] | – | – | – | > 10 min | – | –
